Experimental data: US8927548B2, “Triazole compounds that modulate HSP90 activity” (Synta Pharmaceuticals Corp., priority 2006, dated 2015)
Structures can show the parent of a compound that is named as a salt.

Legend:
Her2 = assay: Degradation of Her2 in BT-474 cells, Method 1 (Western blot); format: cell-based, human; conditions: 0.5 μM, overnight
Method: Human high-Her2 breast carcinoma BT474 (HTB-20), SK-BR-3 (HTB-30) and MCF-7 breast carcinoma (HTB-22) from American Type Culture Collection, VA, USA were grown in Dulbecco's modified Eagle's medium with 4 mM L-glutamine and antibiotics ([…] penicillin and 100 μg/ml streptomycine; GibcoBRL). To obtain exponential cell growth, cells were trypsinized, counted and seeded at a cell density of 0.5×10^6 cells/ml regularly, every 3 days. All experiments were performed on day 1 after cell passage.
BT-474 cells are treated with 0.5 μM, 2 μM, or 5 μM of 17AAG (a positive control) or 0.5 μM, 2 μM, or 5 μM of a compound of the invention overnight in DMEM medium. After treatment, each cytoplasmic sample is prepared from 1×10^6 cells by incubation of cell lysis buffer (#9803, cell Signaling Technology) on ice for 10 minutes. The resulting supernatant used as the cytosol fractions is dissolved with sample buffer for SDS-PAGE and run on a SDS-PAGE gel, blotted onto a nitrocellulose membrane by using semi-dry transfer. Non-specific binding to nitrocellulose is blocked with 5% skim milk in TBS with 0.5% Tween at room temperature for 1 hour, then probed with anti-Her2/ErB2 mAb (rabbit IgG, #2242, Cell Signaling) and anti-Tubulin (T9026, Sigma) as housekeeping control protein. […]

Hsp90 = assay: Degradation of Her2 / inhibition of Hsp90, Method 2: MV-4-11 cell survival after 72 hours (Cell Counting Kit-8); format: cell-based, human; conditions: Table 4, IC50 range, MV-4-11 cells
Method: MV-4-11 cells (20,000 cells/well) were cultured in 96-well plates and maintained at 37° C. for several hours. The cells were treated with a compound of the invention or 17AAG (a positive control) at various concentrations and incubated at 37° C. for 72 hours. Cell survival was measured with Cell Counting Kit-8 (Dojindo Laboratories, Cat. # CK04). […] Tables 4-6: IC50 range of compounds of the invention for inhibition of Hsp90

| Structure (SMILES) | degradation of Her2 (Her2) | IC50 (Hsp90) [nM] |
| --- | --- | --- |
| C=CCNC1=C2C[C@@H](C)C[C@H](OC)[C@H](O)[C@@H](C)/C=C(\C)[C@H](OC(N)=O)[C@@H](OC)/C=C\C=C(/C)C(=O)NC(=CC1=O)C2=O [Compound 17AAG, 17-allylamino-17-demethoxygeldanamycin] | partial degradation |  |
| CC(=O)N1Cc2ccc(-n3c(O)nnc3-c3cc(C(C)C)c(O)cc3O)cc2C1 [Compound 23, 1-(5-(3-(2,4-dihydroxy-5-isopropylphenyl)-5-hydroxy-4H-1,2,4-triazol-4-yl)isoindolin-2-yl)ethanone] |  | < 500 |
| CC(C)c1cc(-c2nnc(O)n2-c2ccc3c(c2)CCN3C(=O)C2CCC(N)CC2)c(O)cc1O (stereo not drawn) [Compound 39, (4-Aminocyclohexyl)(5-(3-(2,4-dihydroxy-5-isopropylphenyl)-5-hydroxy-4H-1,2,4-triazol-4-yl)indolin-1-yl)methanone hydrochloride] |  | < 1000 |
